Results taken from publication PMC3664202 (Bioorganic & medicinal chemistry letters, 2012).

Experiments:
[1] = tested on: psoriasis and other inflammatory skin conditions; conditions: small clinical trial; cited from earlier work
Kv1.3 channels = Kv1.3 channels (Mus musculus, UniProt P16390); test: Kv1.3 blockade, manual whole-cell patch-clamp; format: cell-based; conditions: for decrease in Kv1.3 blocking activity/potency relative to diphenoxylate: fold less potent than diphenoxylate
[2] = cited from earlier work
[3] = tested on: delayed type hypersensitivity (DTH) and allergic contact dermatitis (ACD); conditions: Lewis rats; dosed orally, by i.p. injection or topically; cited from earlier work
[4] = tested on: adoptive transfer and chronic relapsing experimental autoimmune encephalomyelitis (EAE); conditions: rats; cited from earlier work

Kv1.3 channels, sequence (P16390 whole entry): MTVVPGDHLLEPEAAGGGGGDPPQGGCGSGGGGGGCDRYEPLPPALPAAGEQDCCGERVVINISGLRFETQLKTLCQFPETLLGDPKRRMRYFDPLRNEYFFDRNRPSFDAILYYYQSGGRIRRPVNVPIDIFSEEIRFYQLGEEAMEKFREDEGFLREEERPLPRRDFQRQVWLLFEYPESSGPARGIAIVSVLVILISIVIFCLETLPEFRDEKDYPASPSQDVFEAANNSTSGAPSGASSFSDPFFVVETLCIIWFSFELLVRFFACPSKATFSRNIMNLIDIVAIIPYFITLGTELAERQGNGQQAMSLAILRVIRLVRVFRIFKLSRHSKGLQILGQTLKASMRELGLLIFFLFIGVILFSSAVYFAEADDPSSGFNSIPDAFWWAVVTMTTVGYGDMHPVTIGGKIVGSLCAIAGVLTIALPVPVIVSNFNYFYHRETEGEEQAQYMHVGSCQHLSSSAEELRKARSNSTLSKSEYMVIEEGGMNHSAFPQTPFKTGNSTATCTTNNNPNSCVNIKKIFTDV

For `CCOC(=O)C1(c2ccccc2)CCN(CCC(C#N)(c2ccccc2)c2ccccc2)CC1` [Compound 1, Diphenoxylate], the “clinical effect on psoriasis and other inflammatory skin conditions” value [1] is given as “successfully treat psoriasis and other inflammatory skin conditions”.

For `CCOC(=O)C1CCN(CCC(C#N)(c2ccccc2)c2ccccc2)CC1` [Compound 6, Ethyl 1-(3-cyano-3,3-diphenylpropyl)piperidine-4-carboxylate], the “decrease in Kv1.3 blocking activity/potency relative to diphenoxylate” value (Kv1.3 channels) was ~ 50 fold.

For `CCOC(=O)C1(c2ccccc2)CCN(CCC(c2ccccc2)c2ccccc2)CC1` [Compound 7, Ethyl 1-(3,3-diphenylpropyl)-4-phenylpiperidine-4-carboxylate], the “more active than diphenoxylate (Kv1.3 blockade)” value (Kv1.3 channels; fold more active than diphenoxylate) was 6 fold.

In the case of `N#CC(CCN1CCCCC1)(c1ccccc1)c1ccccc1` [Compound 8, 2,2-diphenyl-4-(piperidin-1-yl)butanenitrile], the “decrease in Kv1.3 blocking activity/potency relative to diphenoxylate” value (Kv1.3 channels) is reported as 4 fold.

`N#CC(CCN1CCCC(O)C1)(c1ccccc1)c1ccccc1` (stereo not shown) [Compound 15, 4-(3-hydroxypiperidin-1-yl)-2,2-diphenylbutanenitrile] showed an IC50 (Kv1.3 channels) greater than 100 µM.

For `OC1CCN(CCCc2ccccc2)CC1` [Compound 17, 1-(3-phenylpropyl)piperidin-4-ol], the IC50 (Kv1.3 channels) was greater than 100 µM and the “Kv1.3 blocking activity (in words)” value (Kv1.3 channels; removal of a cyano group plus a phenyl ring from 14) was “no activity”.

For `O=c1ccc2c(OCCCCOc3ccccc3)c3ccoc3cc2o1` [PAP-1], the oral availability [2] is listed as 25% and the “effect on DTH and ACD” value [3] is listed as “suppress delayed type hypersensitivity (DTH) and allergic contact dermatitis (ACD)”.

In the case of ShK, the “effect on EAE” value [4] is listed as “able to treat both adoptive transfer and chronic relapsing experimental autoimmune encephalomyelitis (EAE)”.
